# According to paper PMC8508980, “Design, Synthesis and Anticancer Profile of New 4-(1H-benzo[d]imidazol-1-yl)pyrimidin-2-amine-Linked Sulfonamide Derivatives with V600EBRAF Inhibitory Effect” (International Journal of Molecular Sciences, 2021):
# How the values were obtained:
# UO-31 = assay: NCI 60 cell line screen; assay type: cell-based, human; conditions: for activity at 10 µM: Homo sapiens, UO-31, Renal Cancer, read-out: Percent growth; for percent inhibition: UO-31, NCI-60 heat map analysis
# Description: (§1) Anticancer profiling over a panel of 60 cancer cell lines was carried out at the National Cancer Institute (NCI), Bethesda, Maryland, USA, https://dtp.cancer.gov/discovery_development/nci-60/methodology.htm (Last visit 22 September 2021), using the standard procedure (detailed procedure is located in the Supplementary Information page 50 s).
# (§2) NCI standard procedure for 60 cell lines assay
# (§3) The human tumor cell lines of the cancer screening panel are grown in RPMI 1640 mediu m containing 5% fetal bovine serum and 2 mM L-glutamine. For a typical screening experiment, cells are inoculated into 96 well microtiter plates in 100 μL at plating densities ranging from 5,000 to 40,000 cells/well depending on the doubling time of individual cell lines. After cell inoculation, the microtiter plates are incubated at 37° C, 5 % CO2, 95 % air and 100 % relative humidity for 24 h prior to addition of experimental drugs.
# (§4) After 24 h, two plates of each cell line are fixed in situ with TCA, to represent a measurement of the cell population for each cell line at the time of drug addition (Tz). Experimental drugs are solubilized in dimethyl sulfoxide at 400-fold the desired final maximum test concentration (10 µM) and stored frozen prior to use. At the time of drug addition, an aliquot of frozen concentrate is thawed and diluted to twice the desired final maximum test concentration with co mp lete medium containing 50 μg/ml gentamicin. Additional four, 10-fold or ½ log serial dilutions are made to provide a total of five drug concentrations plus control. Aliquots of 100 μl of these different drug dilutions are added to the appropriate microtiter wells already containing 100 μl of medium, resulting in the required final drug concentrations.
# (§5) Following drug addition, the plates are incubated for an additional 48 h at 37°C, 5 % CO2, 95 % air, and 100 % relative humidity. For adherent cells, the assay is terminated by the addition of cold TCA. Cells are fixed in situ by the gentle addition of 50 μl of cold 50 % (w/v) TCA (final concentration, 10 % TCA) and incubated for 60 minutes at 4°C. The supernatant is discarded, and the plates are washed five times with tap water and air dried. Sulforhodamine B (SRB) solution (100 μl) at 0.4 % (w/v) in 1 % acetic acid is added to each well, and plates are incubated for 10 minutes at room temperature. After staining, unbound dye is removed by washing five times with 1 % acetic acid and the plates are air dried. Bound stain is subsequently solubilized with 10 mM trizma base, and the absorbance is read on an automated plate reader at a wavelength of 515 nm. For suspension cells, the methodology is the same except that the assay is terminated by fixing settled cells at the bottom of the wells by g ently adding 50 μl of 80 % TCA (final concentration, 16 % TCA). Using the seven absorbance measurements [time zero, (Tz), control growth, (C), and test growth in the presence of drug at the five concentration levels (Ti)], the percentage growth is calculated at each of the drug concentrations levels. Percentage growth inhibition is calculated as:
# (§6) [(Ti-Tz)/(C-Tz)] x 100 for concentrations for which Ti>/=Tz
# (§7) [(Ti-Tz)/Tz] x 100 for concentrations for which Ti<Tz.
# (§8) Three dose response parameters are calculated for each experimental agent. Growth inhibition of […]
# (§9) resulting in a 50% reduction in the net protein increase (as measured by SRB staining) in control cells during the drug incubation. The drug concentration resulting in total growth inhibition […]
# (§10) (TGI) is calculated from Ti = Tz.
# HOP-92 = assay: NCI 60 cell line screen; assay type: cell-based, human; conditions: for percent inhibition: HOP-92, NCI-60 heat map analysis; for activity at 10 µM: Homo sapiens, HOP-92, Non-Small Cell Lung Cancer, read-out: Percent growth
# Description: as §1, §2, §3, §4, §5, §6, §7, §8, §9, §10
# MDA-MB-468 = assay: NCI 60 cell line screen; assay type: cell-based, human; conditions: for activity at 10 µM: Homo sapiens, MDA-MB-468, Breast Cancer, read-out: Percent growth
# Description: as §1, §2, §3, §4, §5, §6, §7, §8, §9, §10
# NCI/ADR-RES = assay: NCI 60 cell line screen; assay type: cell-based, human; conditions: Homo sapiens, Ovarian Cancer, read-out: Percent growth
# Description: as §1, §2, §3, §4, §5, §6, §7, §8, §9, §10
# SNB-75 = assay: NCI 60 cell line screen; assay type: cell-based, human; conditions: Homo sapiens; SNB-75, CNS-Cancer; read-out: Percent growth
# Description: as §1, §2, §3, §4, §5, §6, §7, §8, §9, §10
# NCI-H226 = assay: NCI 60 cell line screen; assay type: cell-based, human; conditions: for activity at 10 µM: Homo sapiens, NCI-H226, Non-Small Cell Lung Cancer, read-out: Percent growth; for percent inhibition: NCI-H226, NCI-60 heat map analysis
# Description: as §1, §2, §3, §4, §5, §6, §7, §8, §9, §10
# CAKI-1 = assay: NCI 60 cell line screen; assay type: cell-based, human; conditions: for activity at 10 µM: Homo sapiens, CAKI-1, Renal Cancer, read-out: Percent growth
# Description: as §1, §2, §3, §4, §5, §6, §7, §8, §9, §10
# T-47D = assay: NCI 60 cell line screen; assay type: cell-based, human; conditions: for activity at 10 µM: Homo sapiens, T47D, Breast Cancer, read-out: Percent growth; for percent inhibition: NCI-60 heat map analysis
# Description: as §1, §2, §3, §4, §5, §6, §7, §8, §9, §10
# PC-3 = assay: NCI 60 cell line screen; assay type: cell-based, human; conditions: Homo sapiens; PC-3, Prostate Cancer; read-out: Percent growth
# Description: as §1, §2, §3, §4, §5, §6, §7, §8, §9, §10
# EKVX = assay: NCI 60 cell line screen; assay type: cell-based, human; conditions: Homo sapiens, Non-Small Cell Lung Cancer, read-out: Percent growth
# Description: as §1, §2, §3, §4, §5, §6, §7, §8, §9, §10
# RPMI-8226 = assay: NCI 60 cell line screen; assay type: cell-based, human; conditions: for activity at 10 µM: Homo sapiens, RPMI-8226, Leukemia, read-out: Percent growth
# Description: as §1, §2, §3, §4, §5, §6, §7, §8, §9, §10
# U251 = assay: NCI 60 cell line screen; assay type: cell-based, human; conditions: Homo sapiens, U-251; U251, CNS-Cancer; read-out: Percent growth
# Description: as §1, §2, §3, §4, §5, §6, §7, §8, §9, §10
# OVCAR-4 = assay: NCI 60 cell line screen; assay type: cell-based, human; conditions: Homo sapiens; OVCAR-4, Ovarian Cancer; read-out: Percent growth
# Description: as §1, §2, §3, §4, §5, §6, §7, §8, §9, §10
# NCI-H522 = assay: NCI 60 cell line screen; assay type: cell-based, human; conditions: Homo sapiens; NCI-H522, Non-Small Cell Lung Cancer; read-out: Percent growth
# Description: as §1, §2, §3, §4, §5, §6, §7, §8, §9, §10
# BRAF (wild-type) = molecular target: T1, BRAF (wild-type) (Homo sapiens, UniProt P15056); assay: Reaction Biology kinase HotSpot enzyme assay; assay type: biochemical; conditions: 1 µM ATP; mean ± S.D. of two separate experiments
# T1 construct: purchased Reaction Biology Corp. (Kinase HotSpot service)
# Description: The enzymatic assays were performed in Reaction Biology Corp. using the standard protocol at 1 µM ATP and threefold dilution factor (detailed procedure is found in the Supplementary Information page 52 s).
# Reaction Biology Corp. Kinase HotSpotTM service http://www.reactionbiology.com was used for screening of compounds IC50 Proﬁler Express for IC50 measurement. Assay protocol: In a ﬁnal reaction volume of 25 μL, kinase (5–10 mU) is incubated with 25 mM Tris pH 7.5, 0.02 mM EGTA, 0.66 mg/mL myelin basic protein, 10 mM magnesium acetate and [γ33P-ATP] (speciﬁc activity approx. 500 cpm/pmol, concentration as required). The reaction is initiated by the addition of the Mg-ATP mix. After incubation for 40 min at room temperature, the reaction is stopped by the addition of 5 μL of a 3% phosphoric acid solution. 10 μL of the reaction is then spotted onto a P30 ﬁltermat, and washed three times for 5 min in 75 mM phosphoric acid and once in methanol prior to drying and scintillation counting.
# T1 sequence (P15056 whole entry): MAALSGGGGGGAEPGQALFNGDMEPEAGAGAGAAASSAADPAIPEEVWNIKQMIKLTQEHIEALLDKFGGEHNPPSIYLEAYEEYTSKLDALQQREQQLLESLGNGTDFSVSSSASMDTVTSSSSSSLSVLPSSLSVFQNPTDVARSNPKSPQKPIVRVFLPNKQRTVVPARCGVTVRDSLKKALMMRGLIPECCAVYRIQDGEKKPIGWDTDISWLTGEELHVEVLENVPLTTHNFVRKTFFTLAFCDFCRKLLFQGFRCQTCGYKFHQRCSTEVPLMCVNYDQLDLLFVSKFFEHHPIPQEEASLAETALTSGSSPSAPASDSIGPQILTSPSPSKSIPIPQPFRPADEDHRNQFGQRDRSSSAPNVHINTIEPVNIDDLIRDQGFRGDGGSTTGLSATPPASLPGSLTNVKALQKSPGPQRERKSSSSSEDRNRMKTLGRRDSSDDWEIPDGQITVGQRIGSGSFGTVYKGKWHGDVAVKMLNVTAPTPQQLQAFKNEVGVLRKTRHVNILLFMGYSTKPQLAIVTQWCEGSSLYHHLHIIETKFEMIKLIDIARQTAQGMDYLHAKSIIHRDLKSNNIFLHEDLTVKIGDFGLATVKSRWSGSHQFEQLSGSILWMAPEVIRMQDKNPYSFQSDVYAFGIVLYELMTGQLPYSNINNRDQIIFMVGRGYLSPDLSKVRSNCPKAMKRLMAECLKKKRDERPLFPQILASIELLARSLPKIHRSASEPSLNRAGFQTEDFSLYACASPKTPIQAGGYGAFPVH
Compound,activity at 10 µM (UO-31),percent inhibition (UO-31),percent inhibition (HOP-92),activity at 10 µM (HOP-92),activity at 10 µM (MDA-MB-468),activity at 10 µM (NCI/ADR-RES),activity at 10 µM (SNB-75),activity at 10 µM (NCI-H226),percent inhibition (NCI-H226),activity at 10 µM (CAKI-1),activity at 10 µM (T-47D),percent inhibition (T-47D),activity at 10 µM (PC-3),activity at 10 µM (EKVX),activity at 10 µM (RPMI-8226),activity at 10 µM (U251),activity at 10 µM (OVCAR-4),activity at 10 µM (NCI-H522),IC50 (BRAF (wild-type)),other results
"Cc1ccc(S(=O)(=O)NCCNc2nccc(-n3cnc4ccccc43)n2)cc1 [12g, N-(2-((4-(1H-benzo [d]imidazol-1-yl)pyrimidin-2-yl)amino)ethyl)-4-methyl benzenesulfonamide]",52%,48%,around 40%,57.9%,51%,75.7%,69%,58.7%,around 40%,57.5%,27.6%,73%,76.1%,56.1%,52.5%,85.2%,42.1%,64.6%,1530 ± 260 nM,"percent inhibition (MDA-MB-468; MDA-MB-468, NCI-60 heat map analysis): 49%; percent inhibition (RPMI-8226; RPMI-8226, NCI-60 heat map analysis): around 45%"
"O=S(=O)(NCCCNc1nccc(-n2cnc3ccccc32)n1)c1ccc(C(F)(F)F)cc1 [12l, N-(3-((4-(1H-benzo [d]imidazol-1-yl)pyrimidin-2-yl)amino)propyl)-4-(trifluoromethyl) benzenesulfonamide]",54.4%,46%,around 40%,56%,52.7%,55.8%,65.2%,57.6%,around 40%,51.4%,16.8%,84%,59%,58.1%,55.6%,73.2%,53%,66.9%,940 ± 65 nM,"percent inhibition (CAKI-1; CAKI-1, NCI-60 heat map analysis): 49%"
"COc1ccc(S(=O)(=O)NCCCNc2nccc(-n3cnc4ccccc43)n2)cc1 [12m, N-(3-((4-(1H-benzo [d]imidazol-1-yl)pyrimidin-2-yl)amino)propyl)-4-methoxy benzenesulfonamide]",67.2%,,,75.8%,77.2%,105%,88.2%,73.2%,,68.8%,66.3%,,89.7%,84.4%,78.6%,94.5%,77.4%,81.1%,1460 ± 86 nM,
"O=S(=O)(NCCNc1nccc(-n2cnc3ccccc32)n1)c1ccc(Br)cc1 [12d, N-(2-((4-(1H-benzo [d]imidazol-1-yl)pyrimidin-2-yl)amino)ethyl)-4-bromobenzenesulfonamide]",79.8%,,,74.2%,84%,97.6%,74.1%,76.5%,,81.5%,59.1%,,93.8%,83.4%,79.8%,98.6%,82.2%,87.2%,1790 ± 150 nM,
"O=S(=O)(NCCCNc1nccc(-n2cnc3ccccc32)n1)c1ccc(Cl)cc1 [12j, N-(3-((4-(1H-benzo [d]imidazol-1-yl)pyrimidin-2-yl)amino)propyl)-4-chloro benzenesulfonamide]",87.2%,,,94.6%,93.8%,98.2%,91.7%,83.2%,,94.5%,65.3%,,92.5%,91%,78%,100%,83%,82.8%,1130 ± 99 nM,
